Data reported in patent publication US11000033B2, “Ketone or oxime compound, and herbicide” (NISSAN CHEMICAL CORPORATION, priority 2014, dated 2021).

Assays:
Format in all cases: in vivo
[1] = test system: Scirpus juncoides; test: Test Example 1: herbicidal activity, application before weed generation in submerged conditions (symbol B); details: application herbicide amount 320 g/ha
In short: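 Paddy pre-emergence test. Formulated emulsion, water-diluted to a predetermined rate, is applied to floodwater on sowing day; rice transplanted at 2.5 leaves. Effect read at 3 weeks on a 0–5 herbicidal-ratio scale.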

[2] = test system: Echinochloa oryzacola Vasing.; test: Test Example 2: herbicidal activity, application during weed generation in submerged conditions (symbol A); details: Table 23; application herbicide amount 320 g/ha; grade 0-5 by criteria of Test Example 1
In short: (§1)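 Read-out: herbicidal effect on each species rated on a visual scale 3 weeks after treatment. Plants were raised together from seed in flooded alluvial soil (4 cm water) at 25° C. to 30° C. and treated at one to two leaves by water-surface application of diluted emulsion.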

[3] = test system: Scirpus juncoides; test: Test Example 2: herbicidal activity, application during weed generation in submerged conditions (symbol B); details: Table 23; application herbicide amount 320 g/ha; grade 0-5 by criteria of Test Example 1
In short: as §1

[4] = test system: Echinochloa crus-galli var. crus-galli; test: Test Example 3: herbicidal effect by foliage application, Wagner pot (symbol H); details: application herbicide amount 320 g/ha; for H (Echinochloa crus-galli var. crus-galli) herbicidal effect grade: Table 24
In short: (§2)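 Scoring took place 3 weeks after application, using fixed criteria. Plants had been raised from seed for 14 days at 25 to 30 °C in submerged alluvial soil before a diluted emulsion of the test compound was sprayed uniformly on the leaves.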

[5] = test system: Cyperus difformis; test: Test Example 3: herbicidal effect by foliage application, Wagner pot (symbol E); details: application herbicide amount 320 g/ha; for E herbicidal effect grade: Table 24
In short: as §2

[6] = test system: Setaria viridis; test: Test Example 4: herbicidal effect by soil treatment (symbol G)
In short: (§3)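 Seeds were sown in sterilized diluvial soil, covered with about 1.5 cm of soil, and the soil surface was sprayed with a water-diluted emulsion of the compound at a predetermined rate. Plants grew in a greenhouse at 25° C. to 30° C.; effects were scored visually 3 weeks after application.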

[7] = test system: Avena fatua; test: Test Example 4: herbicidal effect by soil treatment (symbol I)
In short: as §3

[8] = test system: Alopecurus myosuroides; test: Test Example 4: herbicidal effect by soil treatment (symbol J)
In short: as §3

[9] = test system: Apera spica-venti; test: Test Example 4: herbicidal effect by soil treatment (symbol L)
In short: as §3

[10] = test system: Abutilon theophrasti; test: Test Example 4: herbicidal effect by soil treatment (symbol M)
In short: as §3

[11] = test system: Chenopodium album; test: Test Example 4: herbicidal effect by soil treatment (symbol O)
In short: as §3

[12] = test system: Veronica persica; test: Test Example 4: herbicidal effect by soil treatment (symbol R)
In short: as §3

[13] = test system: Alopecurus myosuroides; test: Test Example 5: herbicidal effect by foliage application, plastic box (symbol J); details: 320 g/ha, 3 weeks after application
In short: (§4)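 Effect is rated 3 weeks after a foliar spray of water-diluted emulsion concentrate at a predetermined herbicide amount. Plants had grown 14 days in a 25° C. to 30° C. greenhouse from seed in sterilized diluvial soil.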

[14] = test system: Apera spica-venti; test: Test Example 5: herbicidal effect by foliage application, plastic box (symbol L); details: 320 g/ha, 3 weeks after application
In short: as §4

[15] = test system: corn; test: Test Example 5: effect on crop by foliage application, plastic box (symbol c); details: 320 g/ha, 3 weeks after application
In short: (§5)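 Greenhouse culture at 25° C. to 30° C. followed spot-like sowing into sterilized diluvial soil, with seed covered by roughly 1.5 cm of soil.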

[16] = test system: rapeseed; test: Test Example 5: effect on crop by foliage application, plastic box (symbol g); details: 320 g/ha, 3 weeks after application
In short: as §5

[17] = application herbicide amount 320 g/ha

Row | SMILES | B (Scirpus juncoides) herbicidal effect grade [1] | Herbicidal effect grade, A: Echinochloa oryzacola Vasing. [2] | Herbicidal effect grade, B: Scirpus juncoides [3] | H (Echinochloa crus-galli var. crus-galli) herbicidal effect grade [4] | E herbicidal effect grade [5] | Herbicidal effect grade, G: Setaria viridis [6, 17] | Herbicidal effect grade, I: Avena fatua [7, 17] | Herbicidal effect grade, J: Alopecurus myosuroides [8, 17] | Herbicidal effect grade, L: Apera spica-venti [9, 17] | Herbicidal effect grade, M: Abutilon theophrasti [10, 17] | Herbicidal effect grade, O: Chenopodium album [11, 17] | Herbicidal effect grade, R: Veronica persica [12, 17] | J: Alopecurus myosuroides, herbicidal effect grade [13] | L: Apera spica-venti, herbicidal effect grade [14] | c: corn, effect on crop grade [15] | g: rapeseed, effect on crop grade [16] | further results
1 | CC(CC1CC(O)=C(c2c(C)cc(-n3cc(Cl)cn3)cc2C)C1=O)=NOCC(F)(F)F (stereo not shown) [9-010] | 5 (Herbicidal ratio of 90% or more (almost completely withered)) | 4 (Herbicidal ratio of 70% or higher and lower than 90%) | 4 (Herbicidal ratio of 70% or higher and lower than 90%) | 5 (Herbicidal ratio of 90% or more (almost completely withered)) | 5 (Herbicidal ratio of 90% or more (almost completely withered)) | 5 (Herbicidal ratio of 90% or more (almost completely withered)) | 4 (Herbicidal ratio of 70% or higher and lower than 90%) | 5 (Herbicidal ratio of 90% or more (almost completely withered)) | 5 (Herbicidal ratio of 90% or more (almost completely withered)) | 0 (Herbicidal ratio of 5% or lower (almost no effect)) | 0 (Herbicidal ratio of 5% or lower (almost no effect)) | 0 (Herbicidal ratio of 5% or lower (almost no effect)) | 5 (Herbicidal ratio of 90% or more (almost completely withered)) | 5 (Herbicidal ratio of 90% or more (almost completely withered)) | 3 (Herbicidal ratio of 40% or higher and lower than 70%) | 3 (Herbicidal ratio of 40% or higher and lower than 70%) | 
2 | CC#Cc1cc(C)c(C2=C(O)CC(CC(=NOCCOC)C(C)C)C2=O)c(C)c1 (stereo not shown) [9-023] | 5 (Herbicidal ratio of 90% or more (almost completely withered)) | 5 (Herbicidal ratio of 90% or more (almost completely withered)) | 4 (Herbicidal ratio of 70% or higher and lower than 90%) | 5 (Herbicidal ratio of 90% or more (almost completely withered)) | 5 (Herbicidal ratio of 90% or more (almost completely withered)) | 5 (Herbicidal ratio of 90% or more (almost completely withered)) | 2 (Herbicidal ratio of 20% or higher and lower than 40%) | 3 (Herbicidal ratio of 40% or higher and lower than 70%) | 5 (Herbicidal ratio of 90% or more (almost completely withered)) | 0 (Herbicidal ratio of 5% or lower (almost no effect)) | 0 (Herbicidal ratio of 5% or lower (almost no effect)) | 0 (Herbicidal ratio of 5% or lower (almost no effect)) | 5 (Herbicidal ratio of 90% or more (almost completely withered)) | 5 (Herbicidal ratio of 90% or more (almost completely withered)) | 5 (Herbicidal ratio of 90% or more (almost completely withered)) | 5 (Herbicidal ratio of 90% or more (almost completely withered)) | 
3 | CCC(CC1CC(O)=C(c2c(C)cc(-c3ccccc3)cc2OC)C1=O)=NOC (mixture of isomers) [13-004] | 5 (Herbicidal ratio of 90% or more (almost completely withered)) | 5 (Herbicidal ratio of 90% or more (almost completely withered)) | 5 (Herbicidal ratio of 90% or more (almost completely withered)) | 5 (Herbicidal ratio of 90% or more (almost completely withered)) | 5 (Herbicidal ratio of 90% or more (almost completely withered)) |  |  |  |  |  |  |  | 5 (Herbicidal ratio of 90% or more (almost completely withered)) | 5 (Herbicidal ratio of 90% or more (almost completely withered)) | 5 (Herbicidal ratio of 90% or more (almost completely withered)) | 4 (Herbicidal ratio of 70% or higher and lower than 90%) | G: Setaria viridis, herbicidal effect grade [6, 17]: 5 (Herbicidal ratio of 90% or more (almost completely withered)); I: Avena fatua, herbicidal effect grade [7, 17]: 3 (Herbicidal ratio of 40% or higher and lower than 70%); J: Alopecurus myosuroides, herbicidal effect grade [8, 17]: 5 (Herbicidal ratio of 90% or more (almost completely withered)); L: Apera spica-venti, herbicidal effect grade [9, 17]: 5 (Herbicidal ratio of 90% or more (almost completely withered)); M: Abutilon theophrasti, herbicidal effect grade [10, 17]: 0 (Herbicidal ratio of 5% or lower (almost no effect)); O: Chenopodium album, herbicidal effect grade [11, 17]: 0 (Herbicidal ratio of 5% or lower (almost no effect)); R: Veronica persica, herbicidal effect grade [12, 17]: 3 (Herbicidal ratio of 40% or higher and lower than 70%)
4 | CC(CC1CC(O)=C(c2c(C)cc(C)cc2C)C1=O)=NOCC1CC1(F)F (stereo not shown) [1-109] |  | 5 (Herbicidal ratio of 90% or more (almost completely withered)) | 5 (Herbicidal ratio of 90% or more (almost completely withered)) |  |  |  |  |  |  |  |  |  |  |  |  |  | Herbicidal effect grade, B: Scirpus juncoides [1]: 5 (Herbicidal ratio of 90% or more (almost completely withered)); herbicidal effect on H (Echinochloa crus-galli var. crus-galli), grade 0-5 [4]: 5 (Herbicidal ratio of 90% or more (almost completely withered)); herbicidal effect on E, grade 0-5 [5]: 5 (Herbicidal ratio of 90% or more (almost completely withered)); G: Setaria viridis, herbicidal effect grade ([6]; 320 g/ha): 5 (Herbicidal ratio of 90% or more (almost completely withered)); I: Avena fatua, herbicidal effect grade ([7]; 320 g/ha): 2 (Herbicidal ratio of 20% or higher and lower than 40%); J: Alopecurus myosuroides, herbicidal effect grade ([8]; 320 g/ha): 5 (Herbicidal ratio of 90% or more (almost completely withered)); L: Apera spica-venti, herbicidal effect grade ([9]; 320 g/ha): 5 (Herbicidal ratio of 90% or more (almost completely withered)); M: Abutilon theophrasti, herbicidal effect grade ([10]; 320 g/ha): 4 (Herbicidal ratio of 70% or higher and lower than 90%); O: Chenopodium album, herbicidal effect grade ([11]; 320 g/ha): 0 (Herbicidal ratio of 5% or lower (almost no effect)); R: Veronica persica, herbicidal effect grade ([12]; 320 g/ha): 2 (Herbicidal ratio of 20% or higher and lower than 40%); J: Alopecurus myosuroides, herbicidal effect (criteria 0-5) [13]: 5 (Herbicidal ratio of 90% or more (almost completely withered)); L: Apera spica-venti, herbicidal effect (criteria 0-5) [14]: 5 (Herbicidal ratio of 90% or more (almost completely withered)); c: corn, effect on crop (criteria 0-5) [15]: 5 (Herbicidal ratio of 90% or more (almost completely withered)); g: rapeseed, effect on crop (criteria 0-5) [16]: 4 (Herbicidal ratio of 70% or higher and lower than 90%)
